For data set [1], the target named is Trypsin (Homo sapiens, UniProt P07477+P07478+P35030). As to the kind of experiment: Inhibition of human recombinant trypsin using H2N(EEdansyl)GKQLRVVNGG (KDabcyl)-NH2 as substrate by fluorometric analysis. The format is protein assay.
For data set [2], the target named is T1, Suppressor of tumorigenicity 14 protein (Homo sapiens, UniProt Q9Y5Y6).
T1 sequence (Q9Y5Y6 whole entry): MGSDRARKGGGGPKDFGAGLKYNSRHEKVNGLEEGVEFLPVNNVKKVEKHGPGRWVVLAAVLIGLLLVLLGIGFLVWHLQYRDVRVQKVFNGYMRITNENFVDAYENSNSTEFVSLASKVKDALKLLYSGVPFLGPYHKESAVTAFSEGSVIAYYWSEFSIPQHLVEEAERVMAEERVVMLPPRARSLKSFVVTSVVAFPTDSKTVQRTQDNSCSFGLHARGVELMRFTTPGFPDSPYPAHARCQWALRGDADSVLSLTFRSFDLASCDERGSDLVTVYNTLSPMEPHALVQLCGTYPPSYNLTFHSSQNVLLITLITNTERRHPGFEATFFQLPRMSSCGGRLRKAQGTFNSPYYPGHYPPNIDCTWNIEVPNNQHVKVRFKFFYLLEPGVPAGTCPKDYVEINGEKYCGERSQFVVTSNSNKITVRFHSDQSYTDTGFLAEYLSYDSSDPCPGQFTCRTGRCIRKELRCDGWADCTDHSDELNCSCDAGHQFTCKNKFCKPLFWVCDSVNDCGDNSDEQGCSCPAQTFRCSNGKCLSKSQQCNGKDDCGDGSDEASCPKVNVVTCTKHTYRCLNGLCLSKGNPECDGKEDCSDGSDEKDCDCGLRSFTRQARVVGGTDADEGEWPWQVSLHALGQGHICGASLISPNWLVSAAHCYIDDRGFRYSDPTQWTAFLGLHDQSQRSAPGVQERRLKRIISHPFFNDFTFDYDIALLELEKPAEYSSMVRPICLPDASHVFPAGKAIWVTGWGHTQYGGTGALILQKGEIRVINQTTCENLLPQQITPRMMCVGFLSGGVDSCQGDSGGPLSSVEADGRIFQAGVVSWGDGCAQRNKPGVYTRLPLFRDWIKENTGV
The experiment in a line: Inhibition of human recombinant matripase catalytic domain using H2N(EEdansyl)GKQLRVVNGG (KDabcyl)-NH2 as substrate by fluorometric analysis.

Data set [3] is described as follows: Lipophilicity, logD of the compound at pH 7.4 by shake-flask method. The class given is physicochemical. The conditions noted are these: buffer.
Data set [4] addresses Prothrombin (Homo sapiens, UniProt P00734). The experiment in a line: Inhibition of human recombinant thrombin using H2N(EEdansyl)GKQLRVVNGG (KDabcyl)-NH2 as substrate by fluorometric analysis.
Data set [5] deals with Serine protease hepsin (Homo sapiens, UniProt P05981). The experiment in a line: Inhibition of human recombinant hepsin using H2N(EEdansyl)GKQLRVVNGG (KDabcyl)-NH2 as substrate by fluorometric analysis.
Sequence of Serine protease hepsin (P05981 1-162 limits assumed): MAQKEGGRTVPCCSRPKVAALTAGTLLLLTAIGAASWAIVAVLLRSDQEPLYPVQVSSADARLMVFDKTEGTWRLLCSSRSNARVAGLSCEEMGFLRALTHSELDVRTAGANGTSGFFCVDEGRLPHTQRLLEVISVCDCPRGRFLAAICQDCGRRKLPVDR
Sequence of Serine protease hepsin (P05981 163-417 limits assumed): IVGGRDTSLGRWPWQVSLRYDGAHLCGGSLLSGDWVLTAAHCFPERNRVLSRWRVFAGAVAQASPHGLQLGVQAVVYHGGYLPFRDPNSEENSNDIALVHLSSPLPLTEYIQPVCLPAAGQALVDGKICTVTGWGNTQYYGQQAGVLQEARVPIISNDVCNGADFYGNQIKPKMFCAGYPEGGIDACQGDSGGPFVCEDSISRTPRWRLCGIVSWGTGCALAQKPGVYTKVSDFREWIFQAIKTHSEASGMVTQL
Data set [6] can be described thus: Kinetic solubility of the compound at pH 7.4. The class given is physicochemical. The following applies: buffer, read-out: Kinetic_solubility.
Data set [7] deals with Coagulation factor X (Homo sapiens, UniProt P00742). The experiment in a line: Inhibition of human recombinant factor 10a using H2N(EEdansyl)GKQLRVVNGG (KDabcyl)-NH2 as substrate by fluorometric analysis.
Sequence of Coagulation factor X (P00742 41-179 limits assumed): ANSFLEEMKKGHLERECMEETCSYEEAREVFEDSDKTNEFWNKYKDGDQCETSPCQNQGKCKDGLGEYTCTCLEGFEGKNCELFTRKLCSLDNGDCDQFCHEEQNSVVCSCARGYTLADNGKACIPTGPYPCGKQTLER
Sequence of Coagulation factor X (P00742 235-488 limits assumed): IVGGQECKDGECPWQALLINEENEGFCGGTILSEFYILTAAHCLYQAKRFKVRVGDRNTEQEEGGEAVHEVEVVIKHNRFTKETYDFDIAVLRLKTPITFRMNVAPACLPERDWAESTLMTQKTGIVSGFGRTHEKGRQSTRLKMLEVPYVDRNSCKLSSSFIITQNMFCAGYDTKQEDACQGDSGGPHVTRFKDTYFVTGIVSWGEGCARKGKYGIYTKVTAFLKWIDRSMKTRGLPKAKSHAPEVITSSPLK
Data set [8] deals with T2, Hepatocyte growth factor activator serine protease (Homo sapiens, UniProt Q04756).
T2 sequence (Q04756 whole entry): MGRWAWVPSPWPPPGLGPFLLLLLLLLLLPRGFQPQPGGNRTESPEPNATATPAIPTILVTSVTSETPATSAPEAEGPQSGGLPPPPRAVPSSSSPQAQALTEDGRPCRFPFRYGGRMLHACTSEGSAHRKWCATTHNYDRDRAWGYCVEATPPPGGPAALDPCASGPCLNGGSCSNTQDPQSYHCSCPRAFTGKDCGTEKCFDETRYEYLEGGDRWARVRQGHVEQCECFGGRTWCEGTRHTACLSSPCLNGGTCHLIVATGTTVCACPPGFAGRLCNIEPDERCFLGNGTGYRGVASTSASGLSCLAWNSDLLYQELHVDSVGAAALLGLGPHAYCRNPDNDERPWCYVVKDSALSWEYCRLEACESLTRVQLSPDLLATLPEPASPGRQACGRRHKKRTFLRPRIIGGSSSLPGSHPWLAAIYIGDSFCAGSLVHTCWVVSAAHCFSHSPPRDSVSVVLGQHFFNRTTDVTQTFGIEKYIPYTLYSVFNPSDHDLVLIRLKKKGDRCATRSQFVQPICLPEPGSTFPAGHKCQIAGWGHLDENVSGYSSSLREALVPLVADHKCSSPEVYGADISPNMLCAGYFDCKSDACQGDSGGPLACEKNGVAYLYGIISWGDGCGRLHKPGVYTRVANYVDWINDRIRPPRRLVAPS
As to the kind of experiment: Inhibition of human recombinant hepatocyte growth factor activator using H2N(EEdansyl)GKQLRVVNGG (KDabcyl)-NH2 as substrate by fluorometric analysis. The class given is single protein.

Data set [9] deals with Hepatocyte growth factor activator/Serine protease hepsin/Suppressor of tumorigenicity 14 protein (Homo sapiens) (UniProt Q9Y5Y6+P05981+Q04756). As to the kind of experiment: Inhibition of matripase/hepsin/hepatocyte growth factor activator-mediated HGF activation in human 18Co fibroblasts assessed as scattering of human DU145 cells after 24 hrs by crystal violet staining method. The class given is cell-based.
Sequence of Hepatocyte growth factor activator/Serine protease hepsin/Suppressor of tumorigenicity 14 protein (Homo sapiens) (P05981 whole entry, looked up, one chain of several): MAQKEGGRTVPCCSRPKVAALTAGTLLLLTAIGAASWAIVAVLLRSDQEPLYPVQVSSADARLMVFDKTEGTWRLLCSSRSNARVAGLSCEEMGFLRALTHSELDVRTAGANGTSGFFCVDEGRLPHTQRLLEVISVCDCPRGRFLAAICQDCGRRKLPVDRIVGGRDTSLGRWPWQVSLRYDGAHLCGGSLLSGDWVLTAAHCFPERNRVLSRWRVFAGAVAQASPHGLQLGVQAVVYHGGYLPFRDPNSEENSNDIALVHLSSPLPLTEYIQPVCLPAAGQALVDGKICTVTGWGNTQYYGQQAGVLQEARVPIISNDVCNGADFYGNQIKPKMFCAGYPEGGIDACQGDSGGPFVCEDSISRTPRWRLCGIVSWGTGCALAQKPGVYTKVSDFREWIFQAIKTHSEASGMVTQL

Values after ≈ are worked out from the molar mass of the structure shown.

Consider `COCC1CN(CC2CCN(Cc3ccccc3)CC2)C(=O)N(c2cccc(C(=N)N)c2)C1` (stereo not drawn), for which the Ki in [1] came out at 0.21 µM; in [2] it was 0.85 µM; in data set [4], 8.1 µM; in data set [5], 0.92 µM; in [7], 0.2 µM; in [8], 0.16 µM. In data set [3], this molecule displayed a logD of less than 2. For the same molecule, the solubility kinetic in [6] amounted to 47 µM (≈ 21.1 µg/mL). Besides, the inhibition result in data set [9] was “Dose-dependent effect”.
Turning to `CC1CN(CCC2CCN(Cc3ccccc3)CC2)C(=O)N(c2cccc(C(=N)N)c2)C1` (stereo not drawn), the Ki in data set [1] is 2.77 µM; in [2], 0.51 µM; in [4], greater than 100 µM; in [5] it was 2.12 µM; in [7], 0.4 µM; in data set [8], 1.11 µM.
Turning to `N=C(N)c1cccc(N2CC(OCc3ccccc3)CN(CC3CCN(Cc4ccccc4)CC3)C2=O)c1` (stereo not drawn), the inhibition constant (Ki) in data set [1] is 0.55 µM; in data set [2], 1.54 µM; in [4], 29.7 µM; in [5], 0.76 µM; in data set [7], 0.92 µM; in data set [8], 1.92 µM. In [3], the logD was less than 2. Moreover, the solubility kinetic in data set [6] amounted to 47 µM (≈ 24 µg/mL).
Take `N=C(N)c1cccc(N2CC(NS(=O)(=O)c3ccccc3)CN(CC3CCN(Cc4ccccc4)CC3)C2=O)c1` (stereo not drawn): the inhibition constant (Ki) in [1] stood at 0.34 µM; in data set [2] it was 0.52 µM; in data set [4], 17 µM; in data set [5] it was 0.67 µM; in [7] it was 0.61 µM; in data set [8] it was 0.52 µM.
Regarding `N=C(N)c1cccc(N2CC(NS(=O)(=O)Cc3ccccc3)CN(CC3CCN(Cc4ccccc4)CC3)C2=O)c1` (stereo not drawn), the inhibition constant Ki in data set [1] amounted to 0.31 µM; in data set [2], 0.35 µM; in data set [4] it was 13.4 µM; in data set [5], 0.53 µM; in data set [7] it was 0.66 µM; in data set [8], 0.44 µM.
For the molecule `CS(=O)(=O)NC1CN(CC2CCN(Cc3ccccc3)CC2)C(=O)N(c2cccc(C(=N)N)c2)C1` (stereo not drawn), the Ki was 0.42 µM in [1]; 0.33 µM in data set [2]; greater than 100 µM in data set [4]; 0.72 µM in data set [5]; 0.51 µM in data set [7]; 0.35 µM in data set [8].
For `CC1CN(Cc2ccc(C(=N)N)cc2)C(=O)N(C2CCN(Cc3ccccc3)CC2)C1` (stereo not drawn), the Ki in [1] amounted to 4.8 µM; in data set [2] it was 15.4 µM; in data set [4], 82.2 µM; in data set [5], 20.8 µM; in data set [7], 22.8 µM; in [8], 39.6 µM.
With `CC1CN(c2ccc(C(=N)N)cc2)C(=O)N(C2CCN(Cc3ccccc3)CC2)C1` (stereo not drawn), the Ki in [1] is 35.4 µM; in data set [2] it was 48.9 µM; in data set [4], greater than 100 µM; in data set [5], 61.2 µM; in data set [7], 25.5 µM; in data set [8], 46.5 µM.
As for `N=C(N)c1cccc(N2CC(CO)CN(CC3CCN(Cc4ccccc4)CC3)C2=O)c1` (stereo not drawn), the Ki turned out to be 0.15 µM in data set [1]; 0.58 µM in data set [2]; 7.4 µM in data set [4]; 0.69 µM in [5]; 0.25 µM in data set [7]; 0.23 µM in [8]. Moreover, in data set [3], the logD is less than 2. The solubility kinetic in [6] is 47 µM (≈ 20.5 µg/mL). In addition, in [9], the inhibition result was “Dose-dependent effect”.
For the molecule `N=C(N)c1cccc(N2CC(NC(=O)Cc3ccccc3)CN(CC3CCN(Cc4ccccc4)CC3)C2=O)c1` (stereo not drawn), the Ki in [1] was 0.5 µM; in data set [2] it was 1.28 µM; in data set [4] it was 42.3 µM; in data set [5] it was 1.12 µM; in data set [7], 0.74 µM; in [8], 0.38 µM.
Turning to `N=C(N)c1cccc(N2CC(CNC(=O)c3ccccc3)CN(CC3CCN(Cc4ccccc4)CC3)C2=O)c1` (stereo not drawn), the Ki in [1] was 0.33 µM; in [2], 0.47 µM; in [4] it was greater than 100 µM; in [5], 1.1 µM; in data set [7] it was 0.75 µM; in [8] it was 1.1 µM.
Take `N=C(N)c1cccc(N2CC(CNC(=O)Cc3ccccc3)CN(CC3CCN(Cc4ccccc4)CC3)C2=O)c1` (stereo not drawn): the Ki in data set [1] is 0.59 µM; in data set [2] it was 1.51 µM; in data set [4], greater than 100 µM; in data set [5] it was 0.31 µM; in [7], 1.55 µM; in data set [8], 1.08 µM.
With `N=C(N)c1cccc(NC(=O)NC2CCN(Cc3ccccc3)CC2)c1`, the Ki is 5.3 µM in data set [1]; 40.5 µM in [2]; greater than 100 µM in data set [4]; 53.1 µM in [5]; 5.4 µM in [7]; 54.6 µM in data set [8].
In the case of `CC1CN(c2cccc(C(=N)N)c2)C(=O)N(C2CCN(Cc3ccccc3)CC2)C1` (stereo not drawn), the Ki in [1] amounted to 0.78 µM; in [2], 0.83 µM; in data set [4], 35.9 µM; in data set [5], 3.4 µM; in [7] it was 0.24 µM; in data set [8], 9.8 µM.
Turning to `CC1CN(Cc2cccc(C(=N)N)c2)C(=O)N(C2CCN(Cc3ccccc3)CC2)C1` (stereo not drawn), the Ki in data set [1] is 4.8 µM; in data set [2], 13.5 µM; in [4] it was greater than 100 µM; in data set [5] it was 15.1 µM; in data set [7] it was 49.4 µM; in [8] it was greater than 100 µM.
Regarding `N=C(N)c1cccc(N2CC(O)CN(CC3CCN(Cc4ccccc4)CC3)C2=O)c1` (stereo not drawn), the Ki is 0.39 µM in [1]; 0.28 µM in data set [2]; 21.9 µM in data set [4]; 0.21 µM in data set [5]; 0.85 µM in data set [7]; 0.88 µM in data set [8]. This molecule also registered a logD in data set [3] of less than 2. In addition, the solubility kinetic in [6] is 47 µM (≈ 19.8 µg/mL). For the same molecule, in data set [9], the inhibition result was “Dose-dependent effect”.
As for `COC1CN(CC2CCN(Cc3ccccc3)CC2)C(=O)N(c2cccc(C(=N)N)c2)C1` (stereo not drawn), the Ki in data set [1] was 0.76 µM; in data set [2] it was 0.81 µM; in data set [4], greater than 100 µM; in data set [5] it was 0.76 µM; in [7] it was 1.23 µM; in data set [8] it was 2.49 µM. The log distribution coefficient (logD) in data set [3] was less than 2. For the same molecule, in data set [6], the solubility kinetic was 47 µM (≈ 20.5 µg/mL).
With `N=C(N)c1cccc(N2CC(COCc3ccccc3)CN(CC3CCN(Cc4ccccc4)CC3)C2=O)c1` (stereo not drawn), the Ki in data set [1] is 0.1 µM; in data set [2], 0.85 µM; in [4], 2.13 µM; in data set [5] it was 0.56 µM; in data set [7], 0.18 µM; in [8], 0.43 µM. Besides, the logD in data set [3] is less than 2. Besides, the solubility kinetic in [6] amounted to 47 µM (≈ 24.7 µg/mL).

Values taken from ChEMBL document CHEMBL3779883, “Design and Synthesis of Nonpeptide Inhibitors of Hepatocyte Growth Factor Activation” (ACS Med Chem Lett, 2016).
